Test results published in US6887492B2, “Magnesium plus interactive agent delivery” (Leiner Health Services Corp., priority 2000, dated 2005).

Test: Dissolution times of calcium and magnesium in water at pH 7
Assay type: physicochemical
Details: water pH 7
Procedure: The dissolution times for calcium and magnesium were measured by dissolving each in a solution of water having a pH of 7. 331 mg of calcium was placed in a beaker containing the solution an allowed to dissolve. 165 mg of magnesium was then placed in a second beaker and dissolved. The results are listed below in Table 1 and shown graphically in FIG. 1.

Dissolution, percent (%) (dissolution time 150 min)	Dissolution, percent (%) (dissolution time 180 min)	Dissolution, percent (%) (dissolution time 210 min)	Dissolution, percent (%) (dissolution time 240 min)	Dissolution, percent (%) (dissolution time 270 min)	Dissolution, percent (%) (dissolution time 300 min)	Dissolution, percent (%) (dissolution time 330 min)	Dissolution, percent (%) (dissolution time 360 min)	Compound	Dissolution, percent (%) (dissolution time 0 min)	Dissolution, percent (%) (dissolution time 15 min)	Dissolution, percent (%) (dissolution time 30 min)	Dissolution, percent (%) (dissolution time 45 min)	Dissolution, percent (%) (dissolution time 60 min)	Dissolution, percent (%) (dissolution time 75 min)	Dissolution, percent (%) (dissolution time 90 min)	Dissolution, percent (%) (dissolution time 105 min)	Dissolution, percent (%) (dissolution time 120 min)
–	–	–	–	–	–	–	–	[Ca+2] [CALCIUM, calcium]	0	99.7	98.79	98.19	99.09	96.79	97.89	100	99.09
26.61	31.82	36.67	41.82	46.79	50.67	55.21	58.91	[Mg+2] [MAGNESIUM, magnesium]	0	–	4.93	–	10.61	–	16.48	–	21.76
